Data: PubChem BioAssay AID2060616 (Molecular Pharmacology Branch, DTP, NCI, 2025)

Tested on: 377384-186-R-J1-PDC complex spheroid viability
Experiment: Anticancer human tumor 377384-186-R-J1-PDC patient-derived pancreatic carcinoma cell line growth inhibition [CLK]
Conditions: for IC50: curve of first compound; for viability, T/C: stronger effect = lower value; active means viability on the fitted dose curve at most 10% of control; inactive means the rest
How it was run: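 Multi-cell-type spheroids combined patient-derived tumor cells with HUVEC endothelial cells and human mesenchymal stem cells. Paired agents were dosed in half-log steps down from about clinical Cmax, or from 10 microM where Cmax was unknown.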
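Further: spheroids exposed to agents for 7 days before reading.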
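Wherever viability, T/C is given: luminescence signal used as a stand-in for viable cells.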

CC(C)CC(NC(=O)C(Cc1ccccc1)NC(=O)c1cnccn1)B(O)O (centres undefined) + CN1CCN(c2cc(C(=O)Nc3cc4cc(-c5cnn(C)c5)ccc4cn3)ccn2)CC1
inactive: viability, T/C (second compound 0.0316 µM, first compound 0.000949 µM) 95.5% | viability, T/C (second compound 0.1 µM, first compound 0.000949 µM) 94.8% | viability, T/C (second compound 0.316 µM, first compound 0.000949 µM) 22.2%
< 0.949 nM: IC50 (second compound 0.316 µM) | IC50 (second compound 1 µM) | IC50 (second compound 3.16 µM) | IC50 (second compound 10 µM)
active: viability, T/C (second compound 0.0316 µM, first compound 0.003 µM) 2.33% | viability, T/C (second compound 0.0316 µM, first compound 0.00949 µM) 0.36% | viability, T/C (second compound 0.0316 µM, first compound 0.03 µM) 0.23% | viability, T/C (second compound 0.0316 µM, first compound 0.0949 µM) 0.25% | viability, T/C (second compound 0.0316 µM, first compound 0.3 µM) 0.18% | viability, T/C (second compound 0.1 µM, first compound 0.003 µM) 1.28% | viability, T/C (second compound 0.1 µM, first compound 0.00949 µM) 0.36% | viability, T/C (second compound 0.1 µM, first compound 0.03 µM) 0.22% | viability, T/C (second compound 0.1 µM, first compound 0.0949 µM) 0.23% | viability, T/C (second compound 0.1 µM, first compound 0.3 µM) 0.22% | viability, T/C (second compound 0.316 µM, first compound 0.003 µM) 1.48% | viability, T/C (second compound 0.316 µM, first compound 0.00949 µM) 0.19% | viability, T/C (second compound 0.316 µM, first compound 0.03 µM) 0.21% | viability, T/C (second compound 0.316 µM, first compound 0.0949 µM) 0.28% | viability, T/C (second compound 0.316 µM, first compound 0.3 µM) 2.08% | viability, T/C (second compound 1 µM, first compound 0.000949 µM) 0.64% | viability, T/C (second compound 1 µM, first compound 0.003 µM) 0.47% | viability, T/C (second compound 1 µM, first compound 0.00949 µM) 0.35% | viability, T/C (second compound 1 µM, first compound 0.03 µM) 0.22% | viability, T/C (second compound 1 µM, first compound 0.0949 µM) 0.4% | viability, T/C (second compound 1 µM, first compound 0.3 µM) 0.32% | viability, T/C (second compound 3.16 µM, first compound 0.000949 µM) 1.01% | viability, T/C (second compound 3.16 µM, first compound 0.003 µM) 1.51% | viability, T/C (second compound 3.16 µM, first compound 0.00949 µM) 0.92% | viability, T/C (second compound 3.16 µM, first compound 0.03 µM) 0.56% | viability, T/C (second compound 3.16 µM, first compound 0.0949 µM) 0.48% | viability, T/C (second compound 3.16 µM, first compound 0.3 µM) 1.78% | viability, T/C (second compound 10 µM, first compound 0.000949 µM) 0.25% | viability, T/C (second compound 10 µM, first compound 0.003 µM) 0.32% | viability, T/C (second compound 10 µM, first compound 0.00949 µM) 0.24% | viability, T/C (second compound 10 µM, first compound 0.03 µM) 0.24% | viability, T/C (second compound 10 µM, first compound 0.0949 µM) 0.43% | viability, T/C (second compound 10 µM, first compound 0.3 µM) 1.64%
1.66 nM: IC50 (second compound 0.0316 µM)
1.65 nM: IC50 (second compound 0.1 µM)

O=C(c1cc(Cc2n[nH]c(=O)c3ccccc23)ccc1F)N1CCN(C(=O)C2CC2)CC1 + CN1CCN(c2cc(C(=O)Nc3cc4cc(-c5cnn(C)c5)ccc4cn3)ccn2)CC1
6680 nM: IC50 (second compound 0.1 µM)
< 31.6 nM: IC50 (second compound 0.316 µM) | IC50 (second compound 1 µM) | IC50 (second compound 3.16 µM) | IC50 (second compound 10 µM)
> 10000 nM: IC50 (second compound 0.0316 µM)
active: viability, T/C (second compound 1 µM, first compound 0.0316 µM) 1.23% | viability, T/C (second compound 1 µM, first compound 0.1 µM) 1.25% | viability, T/C (second compound 1 µM, first compound 0.316 µM) 1.1% | viability, T/C (second compound 1 µM, first compound 1 µM) 1.53% | viability, T/C (second compound 1 µM, first compound 3.16 µM) 1.47% | viability, T/C (second compound 1 µM, first compound 10 µM) 0.93% | viability, T/C (second compound 3.16 µM, first compound 0.0316 µM) 0.4% | viability, T/C (second compound 3.16 µM, first compound 0.1 µM) 0.39% | viability, T/C (second compound 3.16 µM, first compound 0.316 µM) 0.42% | viability, T/C (second compound 3.16 µM, first compound 1 µM) 0.45% | viability, T/C (second compound 3.16 µM, first compound 3.16 µM) 0.37% | viability, T/C (second compound 3.16 µM, first compound 10 µM) 1.27% | viability, T/C (second compound 10 µM, first compound 0.0316 µM) 0.42% | viability, T/C (second compound 10 µM, first compound 0.1 µM) 1.09% | viability, T/C (second compound 10 µM, first compound 0.316 µM) 1.28% | viability, T/C (second compound 10 µM, first compound 1 µM) 0.44% | viability, T/C (second compound 10 µM, first compound 3.16 µM) 0.49% | viability, T/C (second compound 10 µM, first compound 10 µM) 0.38%
inactive: viability, T/C (second compound 0.0316 µM, first compound 0.0316 µM) 87.8% | viability, T/C (second compound 0.0316 µM, first compound 0.1 µM) 85.3% | viability, T/C (second compound 0.0316 µM, first compound 0.316 µM) 81% | viability, T/C (second compound 0.0316 µM, first compound 1 µM) 77.7% | viability, T/C (second compound 0.0316 µM, first compound 3.16 µM) 65.1% | viability, T/C (second compound 0.0316 µM, first compound 10 µM) 52.7% | viability, T/C (second compound 0.1 µM, first compound 0.0316 µM) 83.9% | viability, T/C (second compound 0.1 µM, first compound 0.1 µM) 89.8% | viability, T/C (second compound 0.1 µM, first compound 0.316 µM) 77% | viability, T/C (second compound 0.1 µM, first compound 1 µM) 78.5% | viability, T/C (second compound 0.1 µM, first compound 3.16 µM) 63.3% | viability, T/C (second compound 0.1 µM, first compound 10 µM) 42.6% | viability, T/C (second compound 0.316 µM, first compound 0.0316 µM) 24% | viability, T/C (second compound 0.316 µM, first compound 0.1 µM) 32.5% | viability, T/C (second compound 0.316 µM, first compound 0.316 µM) 27.3% | viability, T/C (second compound 0.316 µM, first compound 1 µM) 27.1% | viability, T/C (second compound 0.316 µM, first compound 3.16 µM) 24.1% | viability, T/C (second compound 0.316 µM, first compound 10 µM) 22.7%
